Experiments:
GAL4EcR + VP16RXR = assay: Transactivation of reporter gene through switch 1.1 in 3T3 cells; details: GAL4CfEcRDEF/VP16MmRXRDEF (switch 1.1), 1.0 μM ligand, 48 hr
From the text: (§1) In various cellular backgrounds, including mammalian cells, insect ecdysone receptor (EcR) heterodimerizes with retinoid X receptor (RXR) and, upon binding of ligand, transactivates genes under the control of ecdysone response elements. […] The prepared receptor constructs comprise a ligand binding domain of EcR and of RXR or of USP; a DNA binding domain of GAL4 or of EcR; and an activation domain of VP16. The reporter constructs include a reporter gene, luciferase or LacZ, operably linked to a synthetic promoter construct that comprises either GAL4 or EcR/USP binding sites (response elements). Various combinations of these receptor and reporter constructs were cotransfected into CHO, NIH3T3, CV1 and 293 cells.
(§2) The same procedures described for CHO cells were followed for 3T3 cells as well with two modifications. The cells were plated when they reached 50% confluency. 125,000 or 50,000 or 25,000 cells were plated per well of 6- or 12- or 24-well plates respectively.

GAL4RXR + VP16CfEcR = assay: Transactivation of reporter gene through switch 1.3 in 3T3 cells; details: GAL4MmRXRDEF/VP16CfEcRCDEF (switch 1.3), 1.0 μM ligand
From the text: as §1
as §2, with “respectively. […] The ligand treatments were performed as described in the CHO cell section above.” for “respectively.”

CfEcR = assay: Transactivation through CfEcR- versus DmEcR-based switches in mammalian cell lines (Tables 1–4); design: species or system Choristoneura fumiferana
Protocol: Cells were harvested 24–48 hr after adding ligands. […] Twenty μl of lysate was assayed.

[1] = tested on: EcR/RXR receptor combinations; assay: Truncated CfEcR and MmRXR receptor combinations, luciferase reporter in NIH3T3 cells; format: cell-based, Choristoneura fumiferana; Mus musculus; details: 0, 1, 5 or 25 uM ligand for 48 hr, FIGS. 11–14
Protocol: Briefly, polynucleotides encoding EcR or RXR receptors were truncated at the junctions of A/B, C, D, E and F domains and fused to either a GAL4 DNA binding domain encoding polynucleotide (SEQ ID NO: 43) for CfEcR, or a VP16 activation domain encoding polynucleotide (SEQ ID NO: 49) for MmRXR as described in Example 1. The resulting receptor truncation/fusion polypeptides were assayed in NIH3T3 cells. Plasmid pFRLUC (Stratagene) encoding a luciferase polypeptide was used as a reporter gene construct and pTKRL (Promega) encoding a Renilla luciferase polypeptide under the control of the constitutive TK promoter was used to normalize the transfections as described above. The analysis was performed in triplicates and mean luciferase counts were determined as described above. […]

CfEcRDEF:MmRXRDEF = assay: CfEcR-based yeast two-hybrid assay, LacZ reporter pSH118; format: cell-based, Choristoneura fumiferana; Mus musculus; details: yeast strain comprising CfEcRDEF:MmRXRDEF; 0–100 μM ligand for four hours; FIGS. 18 and 19
From the text: This construct results in a LexA:CfEcRDEF fusion that is expressed under the GAL1 promoter.
The D, E, and F domains from mouse (Mus musculus) RXR α (“MmRXRDEF”; SEQ ID NO: 22) were fused to a B42 transactivation domain (“B42AD”; SEQ ID NO: 53) and placed under the control of a GAL1 promoter (SEQ ID NO: 73) in pB42AD (CLONTECH). This construct results in a B42AD:MmRXR-DEF fusion that is expressed under the GAL 1 promoter.
A reporter plasmid comprising a β-galactosidase gene (LacZ; SEQ ID NO: 74) under the control of an 8XLexA operon response element (“8XlexAop”; SEQ ID NO: 75) operably linked to a minimal TATAA region from the GAL1 promoter (p8op-lacZ from CLONTECH) was used to monitor inducible gene expression.
Saccharomyces cerevisiae yeast cells (EGY48; CLONTECH) were used in these experiments. Cells were maintained in liquid culture media with the appropriate drop out amino acids. Standard methods for culture and maintenance of the cells were followed. […]
DNA constructs pSH118, CfEcRDEF, and MmRXRA/BCDEF, MmRXRDEF, or […] were transfected into yeast cells. […] A colony from each group of transformants was grown in the liquid culture in the presence of 0, 0.04, 0.2, 1, 5 and 25 μM GS™-E. The reporter activity was measured as described above 4 hours after adding ligand. Total RLUs were calculated and the numbers on the bars of FIG. 16 show maximum fold induction observed for that group (see FIGS. 16 and 17).
The best performing transformed yeast strain from the analysis above comprising CfEcRDEF:MmRXRDEF was used to determine the induction activity of three steroid ligands (20E, PonA, MurA) and four non-steroid ligands (GS™-E, RH2485, RH5992, RH5849) in this yeast-based format. The yeast cells were cultured in the presence of 0, 0.l, 1, 10, 50 and 100 μM ligands for four hours and the reporter activity was measured as described above. Total RLUs were calculated and the numbers on the top of the bars of FIG. 18 show the maximum fold induction for that group (see FIGS. 18 and 19).

| SMILES | Mean Fold Induction at 1.0 μM Concentration (GAL4EcR + VP16RXR) [fold] | Mean Fold Induction at 1.0 μM Concentration (GAL4RXR + VP16CfEcR) [fold] | Potency as activator of CfEcR compared to DmEcR (CfEcR) | Sensitivity of the EcR/RXR switch to the ligand [1] | Induction of gene expression (relative performance of ligands) (CfEcRDEF:MmRXRDEF) |
| --- | --- | --- | --- | --- | --- |
| CC(C)CC[C@@H](O)[C@](C)(O)[C@H]1CC[C@@]2(O)C3=CC(=O)[C@]4(O)C[C@@H](O)[C@@H](O)C[C@]4(C)[C@H]3[C@H](O)C[C@]12C [Muristerone A, reference compound] | 1.0 | 1.0 | – | – | – |
| Cc1cc(C)cc(C(=O)N(NC(=O)c2ccc3c(c2C)OCCO3)C(C)(C)C)c1 [N-(3,4-(1,2-ethylenedioxy)-2-methylbenzoyl)-N′-(3,5-dimethylbenzoyl)-N′-tert-butylhydrazine] | – | 54 | more potent activators of CfEcR as compared to Drosophila melanogaster EcR (DmEcR) | – | – |
| CC(C)CC[C@@H](O)[C@](C)(O)[C@H]1CC[C@@]2(O)C3=CC(=O)[C@@H]4C[C@@H](O)[C@@H](O)C[C@]4(C)[C@H]3CC[C@]12C [Ponasterone A, reference compound] | 1.0 | 1.0 | – | insensitive | – |
| CC(C)(C)N(NC(=O)c1ccccc1)C(=O)c1ccccc1 [RH5849, N-tert-butyl-N,N′-dibenzoylhydrazine] | – | – | – | – | did not show a significant response |

Reference: US7091038B2, “Ecdysone receptor-based inducible gene expression system” (RheoGene, Inc., priority 2000, dated 2006)
